Tests used:
[1] = target: receptor binding domain (RBD) of SARS-CoV-2 (2019-nCoV) (Severe acute respiratory syndrome coronavirus 2, UniProt P0DTC2); experiment: biochemical; conditions: Table 4, cysteines in reduced state, MST
[2] = target: receptor binding domain (RBD) of SARS-CoV-2 wildtype (2019-nCoV) (SARS-CoV-2), P0DTC2

`CC(C)C[C@H](NC(=O)[C@H](Cc1ccccc1)NC(=O)[C@@H](NC(=O)[C@H](CCCCN)NC(=O)[C@H](C)NC(=O)[C@H](CCC(N)=O)NC(=O)[C@H](CCC(=O)O)NC(=O)[C@@H](N)CCC(=O)O)[C@@H](C)O)C(=O)N[C@@H](CC(=O)O)C(=O)N[C@@H](CCCCN)C(=O)N[C@@H](Cc1ccccc1)C(=O)N[C@@H](CC(N)=O)C(=O)N[C@@H](Cc1c[nH]cn1)C(=O)N[C@@H](CCC(=O)O)C(=O)N[C@@H](C)C(=O)N[C@@H](CCC(=O)O)C(=O)N[C@@H](CC(=O)O)C(=O)N[C@@H](CS)C(=O)N[C@@H](Cc1ccccc1)C(=O)N[C@@H](Cc1ccc(O)cc1)C(=O)N[C@@H](CCC(N)=O)C(=O)N[C@@H](CS)C(=O)N[C@@H](CO)C(=O)O` [p4C18, 22] gave a Kd [1] of 218 nM.

B1: p6(K)8(D)12 (peptide)
peptide: EEQAKTFKDKFDHEAEDLFYQSSGLGKGDFR
modifications: not checked
B1 showed a Kd [2] of 5 µM.

From US20250250312A1, “BIFUNCTIONAL PEPTIDE WITH MU[…] VIRUS BINDING PROPERTIES” (priority 2022, published 2025)
